Read-outs that look alike come from different tables or passages of the source.
What was measured:
SCID mice = experiment: Toxicity in SCID mice; assay type: in vivo; conditions: 25 mg/kg, daily intravenous dosing, five days a week for 2 weeks
H146 cell line [1] = experiment: Cell death induction by trypan blue assay; assay type: cell-based, Human; conditions: 24 h
[2] = test system: H146, H1417 and H1963 cancer cell lines; assay type: cell-based, Human
H146 cell line [3] = experiment: Western blotting of caspase-3 and PARP cleavage in cells; assay type: cell-based, Human; conditions: 24 h
H146 cancer cells = experiment: Release of cytochrome C from mitochondria in cells; assay type: cell-based, Human; conditions: for Release of cytochrome C and cleavage of PARP at 30 nM: 2 h, H146 cells; for Release of cytochrome C from mitochondria in H146 cells: treatment as short as 2 h
[4] = test system: H1417 small-cell lung cancer cell line; experiment: Cell growth inhibition, H1417; assay type: cell-based, Human
[5] = test system: H146 small-cell lung cancer cell line; experiment: Cell growth inhibition, H146; assay type: cell-based, Human
H146 xenograft model = experiment: In vivo efficacy study, H146 xenograft model; conditions: 25 mg/kg daily i.v. 5 days a week for 2 weeks
Bcl-2 [6] = target: T1, Bcl-2 (Homo sapiens, UniProt P10415); experiment: Fluorescence polarization-based; assay type: binding; conditions: for times less potent than 12 in binding to Bcl-2: compared with compound 12
T1 sequence (P10415 whole entry): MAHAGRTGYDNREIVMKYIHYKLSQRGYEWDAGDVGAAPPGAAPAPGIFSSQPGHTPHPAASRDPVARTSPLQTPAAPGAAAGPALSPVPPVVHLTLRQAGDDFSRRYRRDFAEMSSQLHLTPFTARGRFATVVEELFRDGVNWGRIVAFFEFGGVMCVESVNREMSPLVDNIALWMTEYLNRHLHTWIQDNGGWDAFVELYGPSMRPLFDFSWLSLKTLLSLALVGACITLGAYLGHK

[7] = test system: H1963 small-cell lung cancer cell line; experiment: Cell growth inhibition, H1963; assay type: cell-based; conditions: read-out: Cell Growth Inhibition (IC50 ± SD) H1963
Bcl-xL [8] = target: T2, Bcl-xL (Homo sapiens, UniProt Q07817); experiment: Fluorescence polarization-based; assay type: binding
T2 sequence (Q07817 whole entry): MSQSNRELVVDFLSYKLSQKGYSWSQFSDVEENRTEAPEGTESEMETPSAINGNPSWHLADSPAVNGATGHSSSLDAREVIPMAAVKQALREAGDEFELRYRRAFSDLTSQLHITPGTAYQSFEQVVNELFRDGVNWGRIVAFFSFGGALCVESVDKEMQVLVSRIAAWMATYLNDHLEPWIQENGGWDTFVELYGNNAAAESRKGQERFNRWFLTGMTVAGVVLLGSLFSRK

Bcl-xL [9] = target: T2, Bcl-xL; conditions: read-out: Ki, binding to Bcl-xL; previously reported; cited from earlier work
[10] = test system: H146 xenograft tumor tissues; experiment: In vivo pharmacodynamic; design: species or system SCID mice; conditions: at its maximum tolerated dose (data not shown)
Bcl-2 [11] = target: T1, Bcl-2; experiment: Cell-free mitochondrial functional assay, Bcl-2; conditions: compared with compound 1

Cc1c(C(=O)O)c(-c2cccc(N3CCN(c4ccc(NS(=O)(=O)c5ccc(N[C@H](CCN(C)C)CSc6ccccc6)c([N+](=O)[O-])c5)cc4)CC3)c2)c(-c2ccc(Cl)cc2)n1C(C)C [Compound 15, (R)-5-(4-Chlorophenyl)-4-(3-(4-(4-(4-((4-(dimethylamino)-1-(phenylthio)butan-2-yl)amino)-3-nitrophenylsulfonamido)phenyl)piperazin-1-yl)phenyl)-1-isopropyl-2-methyl-1H-pyrrole-3-carboxylic acid]
Tolerability in SCID mice (SCID mice): toxic to the animals which had severe weight loss
Cell death induction in H146 at 10 nM (H146 cell line [1]): induce robust cell death
Cell death induction in H146 (H146 cell line [1]): effectively induce cell death in H146 in a dose-dependent manner
times more potent than compound 1 in cell growth inhibition ([2]; direct comparison): 10–100 times
Cleavage of caspase-3 and PARP in H146 (H146 cell line [3]): induce cleavage of caspase-3 and poly (ADP- ribose) polymerase (PARP) in a dose-dependent manner
Release of cytochrome C and cleavage of PARP at 30 nM (H146 cancer cells): robust
Release of cytochrome C from mitochondria in H146 cells (H146 cancer cells): induces a release of cytochrome C in a dose-dependent manner

CN(C)CC[C@H](CSc1ccccc1)Nc1ccc(S(=O)(=O)NC(=O)c2ccc(N3CCN(Cc4ccccc4-c4ccc(Cl)cc4)CC3)cc2)cc1[N+](=O)[O-] [Compound 1, reference compound]
Cell death induction in H146 (H146 cell line [1]): effectively induce cell death in H146 in a dose-dependent manner
Cleavage of caspase-3 and PARP in H146 (H146 cell line [3]): induce cleavage of caspase-3 and poly (ADP- ribose) polymerase (PARP) in a dose-dependent manner

CN1CCN(CCCNC(=O)c2c(-c3ccccc3)c(-c3ccc(Cl)cc3)cn2CC[C@H](O)CO)CC1 [Compound 7, reference compound]
IC50 ([4]; Homo sapiens, NCI-H1417, read-out: Cell Growth Inhibition (IC50 ± SD) H1417): > 10 µM
IC50 ([5]; Homo sapiens, NCI-H146, read-out: Cell Growth Inhibition (IC50 ± SD) H146): > 10 µM

CCn1c(C)c(C(=O)O)c(-c2cccc(N3CCN(c4ccc(NS(=O)(=O)c5ccc(N[C@H](CCN(C)C)CSc6ccccc6)c([N+](=O)[O-])c5)cc4)CC3)c2)c1-c1ccc(Cl)cc1 [Compound 14, (R)-5-(4-Chlorophenyl)-4-(3-(4-(4-(4-((4-(dimethylamino)-1-(phenylthio)butan-2-yl)amino)-3-nitrophenylsulfonamido)phenyl)piperazin-1-yl)phenyl)-1-ethyl-2-methyl-1H-pyrrole-3-carboxylic acid]
Tolerability in SCID mice (SCID mice): well tolerated
Inhibition of tumor growth (H146 xenograft model): very effective in inhibition of tumor growth
Maximum weight loss during the treatment (H146 xenograft model): < 10%
Other signs of toxicity (H146 xenograft model): no other signs of toxicity observed
Tumor regression during the treatment phase (H146 xenograft model): capable of achieving tumor regression
Cell death induction in H146 at 10 nM (H146 cell line [1]): induce robust cell death
Cell death induction in H146 (H146 cell line [1]): effectively induce cell death in H146 in a dose-dependent manner
Cleavage of caspase-3 and PARP in H146 (H146 cell line [3]): induce cleavage of caspase-3 and poly (ADP- ribose) polymerase (PARP) in a dose-dependent manner
Release of cytochrome C and cleavage of PARP at 30 nM (H146 cancer cells): robust
Release of cytochrome C from mitochondria in H146 cells (H146 cancer cells): induces a release of cytochrome C in a dose-dependent manner

Cc1cc(-c2cccc(N3CCN(c4ccc(NS(=O)(=O)c5ccc(N[C@H](CCN(C)C)CSc6ccccc6)c([N+](=O)[O-])c5)cc4)CC3)c2)c(-c2ccc(Cl)cc2)n1C [Compound 13, (R)-N-(4-(4-(3-(2-(4-Chlorophenyl)-1,5-dimethyl-1H-pyrrol-3-yl)phenyl)piperazin-1-yl)phenyl)-4-((4-(dimethylamino)-1-(phenylthio)butan-2-yl)amino)-3-nitrobenzenesulfonamide]
times less potent than 12 in binding to Bcl-2 (Bcl-2 [6]): 100 times

CNC(=O)c1c(-c2cccc(N3CCN(c4ccc(NS(=O)(=O)c5ccc(N[C@H](CCN(C)C)CSc6ccccc6)c([N+](=O)[O-])c5)cc4)CC3)c2)c(-c2ccc(Cl)cc2)n(C)c1C [Compound 11, (R)-5-(4-Chlorophenyl)-4-(3-(4-(4-(4-((4-(dimethylamino)-1-(phenylthio)butan-2-yl)amino)-3-nitrophenylsulfonamido)phenyl)piperazin-1-yl)phenyl)-N,1,2-trimethyl-1H-pyrrole-3-carboxamide]
times more potent than compound 10 in cell growth inhibition [2]: 2–4 times

(R)-5-(4-Chlorophenyl)-4-(3-(4-(4-(((4-((4-(dimethylamino)-1-(phenylthio)butan-2-yl)amino)phenyl)sulfonyl)carbamoyl)phenyl)piperazin-1-yl)phenyl)-1,2-dimethyl-N-(3-(4-methylpiperazin-1-yl)propyl)-1H-pyrrole-3-carboxamide [Compound 9]
IC50 [7]: > 10 µM
IC50 ([4]; read-out: Cell Growth Inhibition (IC50 ± SD) H1417, H1417): > 10 µM
IC50 ([5]; read-out: Cell Growth Inhibition (IC50 ± SD) H146, H146): > 10 µM

Cc1c(C(=O)NCCCN2CCN(C)CC2)c(-c2ccccc2)c(-c2ccc(Cl)cc2)n1C [Compound 8, 5-(4-Chlorophenyl)-1,2-dimethyl-N-(3-(4-methylpiperazin-1-yl)propyl)-4-phenyl-1H-pyrrole-3-carboxamide]
times more potent than 7 in binding to Bcl-2 (Bcl-2 [6]; Ki compared with compound 7): 2 times
Cellular activity (cell growth inhibition) [2]: minimal cellular activity
times more potent than 7 in binding to Bcl-xL (Bcl-xL [8]; Ki compared with compound 7): 2 times

Cc1c(C(=O)O)c(-c2cccc(N3CCN(c4ccc(NS(=O)(=O)c5ccc(N[C@H](CCN(C)C)CSc6ccccc6)c([N+](=O)[O-])c5)cc4)CC3)c2)c(-c2ccc(Cl)cc2)n1C1CC1 [Compound 16, (R)-5-(4-Chlorophenyl)-1-cyclopropyl-4-(3-(4-(4-(4-((4-(dimethylamino)-1-(phenylthio)-butan-2-yl)amino)-3-nitrophenylsulfonamido)phenyl)piperazin-1-yl)phenyl)-2-methyl-1H-pyrrole-3-carboxylic acid]
times less potent than 12 in binding to Bcl-2 (Bcl-2 [6]): 10 times

Cc1c(C(=O)O)c(-c2cccc(N3CCN(c4ccc(NS(=O)(=O)c5ccc(N[C@H](CCN(C)C)CSc6ccccc6)c([N+](=O)[O-])c5)cc4)CC3)c2)c(-c2ccc(Cl)cc2)n1C [Compound 12, (R)-5-(4-Chlorophenyl)-4-(3-(4-(4-(4-((4-(dimethylamino)-1-(phenylthio)butan-2-yl)amino)-3-nitrophenylsulfonamido)phenyl)piperazin-1-yl)phenyl)-1,2-dimethyl-1H-pyrrole-3-carboxylic acid]
Cell death induction in H146 (H146 cell line [1]): effectively induce cell death in H146 in a dose-dependent manner
times more potent than compound 10 in cell growth inhibition [2]: 2–4 times
Cleavage of caspase-3 and PARP in H146 (H146 cell line [3]): induce cleavage of caspase-3 and poly (ADP- ribose) polymerase (PARP) in a dose-dependent manner

CCc1c(-c2ccc(Cl)cc2)c(-c2cccc(N3CCN(c4ccc(NS(=O)(=O)c5ccc(N[C@H](CCN(C)C)CSc6ccccc6)c([N+](=O)[O-])c5)cc4)CC3)c2)c(C(=O)O)n1C [Compound 6]
Ki (Bcl-xL [9]): < 0.001 µM
Apoptosis induction in H146 xenograft tumor tissues [10]: fails to induce robust apoptosis
Ki (Bcl-xL [8]; read-out: Binding Affinities Bcl-xL Ki ± SD, FP competitive binding): < 0.001 µM

Cc1c(C(=O)NCCCN2CCN(C)CC2)c(-c2cccc(N3CCN(c4ccc(NS(=O)(=O)c5ccc(N[C@H](CCN(C)C)CSc6ccccc6)c([N+](=O)[O-])c5)cc4)CC3)c2)c(-c2ccc(Cl)cc2)n1C [Compound 10, (R)-5-(4-Chlorophenyl)-4-(3-(4-(4-(4-((4-(dimethylamino)-1-(phenylthio)butan-2-yl)amino)-3-nitrophenylsulfonamido)phenyl)piperazin-1-yl)phenyl)-1,2-dimethyl-N-(3-(4-methylpiperazin-1-yl)propyl)-1H-pyrrole-3-carboxamide]
times less potent than 1 in the Bcl-2 functional assay (Bcl-2 [11]): 3 times

Reference: paper PMC3417242 (Journal of medicinal chemistry, 2012)
